Experimental findings from patent EP1857440A1, “Novel compounds, isomer thereof, or pharmaceutically acceptable salts thereof as vanilloid receptor antagonist; and pharmaceutical compositions containing the same” (Amorepacific Corporation, priority 2006, dated 2007) are described below.

One experiment deals with T1, vanilloid receptor (Rattus norvegicus, UniProt O35433).
T1 construct: DRG nerve cells from the primary culture of 2 days were equilibrated by washing 4 times; endogenous in cells; host or cells: primary culture of dorsal root ganglion (DRG) neurons from neonatal SD rats
T1 sequence (O35433 whole entry): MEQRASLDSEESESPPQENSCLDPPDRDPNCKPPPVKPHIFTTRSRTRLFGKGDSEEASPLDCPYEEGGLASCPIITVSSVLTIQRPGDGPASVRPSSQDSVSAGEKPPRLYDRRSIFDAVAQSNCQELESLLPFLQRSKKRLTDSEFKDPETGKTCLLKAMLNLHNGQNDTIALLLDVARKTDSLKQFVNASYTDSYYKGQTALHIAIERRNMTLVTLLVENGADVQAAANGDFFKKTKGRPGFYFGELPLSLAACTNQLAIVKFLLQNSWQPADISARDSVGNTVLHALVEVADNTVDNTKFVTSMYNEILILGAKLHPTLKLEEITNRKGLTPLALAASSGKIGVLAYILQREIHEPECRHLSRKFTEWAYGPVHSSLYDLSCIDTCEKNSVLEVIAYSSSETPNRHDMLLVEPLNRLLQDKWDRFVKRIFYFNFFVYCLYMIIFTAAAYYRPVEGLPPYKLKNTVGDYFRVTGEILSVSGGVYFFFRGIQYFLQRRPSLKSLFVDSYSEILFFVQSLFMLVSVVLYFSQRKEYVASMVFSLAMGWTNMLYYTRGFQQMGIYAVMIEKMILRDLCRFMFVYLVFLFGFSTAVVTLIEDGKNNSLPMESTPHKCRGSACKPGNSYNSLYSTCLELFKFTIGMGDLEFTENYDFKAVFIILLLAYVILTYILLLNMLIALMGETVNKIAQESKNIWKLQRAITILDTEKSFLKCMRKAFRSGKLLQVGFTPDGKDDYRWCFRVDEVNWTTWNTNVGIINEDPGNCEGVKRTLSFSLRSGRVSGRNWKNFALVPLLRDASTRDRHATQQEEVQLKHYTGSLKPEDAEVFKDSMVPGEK
Description: 45Ca influx test (calcium uptake) in primary cultured neonatal rat DRG neurons, capsaicin-stimulated. Type of experiment: cell-based, SD rats. The settings on record: capsaicin 0.5 µM; for IC50: 45Ca 10 µCi/ml, 10 mins at room temperature, read-out: Antagonist Calcium Uptake Test (IC50); for Antagonist Calcium Uptake Test (% @ 10 µM): 10 µM test compound. The procedure:
1) Separation of spinal dorsal root ganglia (DRG) in newborn rats and primary culture thereof
Neonatal (2-3 day old or younger than 2-3 day old) SD rats were put in ice for 5 minutes to anesthetize and disinfected with 70% ethanol. DRG of all part of spinal cord were dissected (Wood et al., 1988, J. Neurosci. 8, pp3208-3220) and collected in DME/F12 medium to which 1.2g/l sodium bicarbonate, 50mg/l gentamycin were added. The DRG were incubated sequentially at 37°C for 30 min in 200 U/ml collagenase and 2.5mg/ml trypsin, separately. The gangiia were washed twice with DME/F12 medium supplemented with 10% horse serum, triturated through a fire-polished Pasteur pipette, filtered through Nitex 80 membrane to obtain single cell suspension and the suspension was washed once more. This was subjected to centrifugation, then resuspended in cell culture medium at certain level of cell density. As the cell culture medium, DME/F12 medium supplemented with 10% horse serum was diluted with identical medium conditioned by C6 glioma cells 2 days on a confluent monolayer (1:1), and NGF (Nerve Growth Factor) was added to adjust 200ng/ml as final concentration. After the cells were grown 2 days in medium where cytosine arabinoside (Ara-C, 100 µM) was added to kill dividing nonneuronal cells, medium was changed to one without Ara-C. The resuspended cells were plated at a density of 1500-2000 neurons/well onto Terasaki plates previously coated with 10 µg/ml poly-D-ornithine.
2) ^45 Ca influx experiments
DRG nerve cells from the primary culture of 2 days were equilibrated by washing 4 times with HEPES (10mM, pH 7.4)-buffered Ca ^2+, Mg^2+-free HBSS (H-HBSS). The solution in each well was removed from the individual well. Medium containing the test compound plus capsaicin (final concentration 0.5 µM) and ^45Ca (final concentration 10 µCi/ml) in H-HBSS was added to each well and incubated at room temperature for 10 mins. Terasaki plates were washed five times with H-HBSS and dried at room temperature. To each well, 0.3% SDS (10 µl) was added to elute ^45Ca. After the addition of scintillation cocktail of into each well, the amount of ^45Ca influx into neuron was measured by counting radioactivity. […] [Table 1] Results of Calcium Influx Test

For the next experiment, the system named is Male ICR mice. Description: Analgesic activity test: mouse writhing test induced with phenyl-p-quinone. The format is in vivo. The settings on record: ip, 0.5 h, 30 min before phenyl-p-quinone, read-out: Analgesic effect (%Inhibition); for inhibition in vivo at 1 mg/kg: Dose 1 mg/kg intraperitoneally. The procedure:
2. Analgesic activity test: Mouse writhing test by inducing with phenyl-p-quinone
Male ICR mice (mean body weight 25g) were maintained in a controlled lighting environment (12 h on/ 12 h off) for experiment. Animals received an intraperitoneal injection of 0.3ml of the chemical irritant phenyl-p-quinone (dissolved in saline containing 5% ethanol to be a dose of 4.5mg/kg) and 6 mins later, the number of abdominal constrictions was counted in the subsequent 6 mins period. Animals (10 animals/group) received 0.2ml of test compounds solution in vehicle of ethanol/Tween 80/saline (10/10/80) intraperitoneally 30 min before the injection of phenyl-p-quinone. A reduction in the number of writhes responding to the test drug compound relative to the number responding in saline control group was considered to be indicative of an analgesic effect. Analgesic effect was calculated by % inhibition equation (% inhibition=(C-T)/C x 100), wherein C and T represent the number of writhes in control and compound-treated group, respectively (Table 2).
(In general: Writhing tests count abdominal constrictions after an irritant is injected.)

With `CC(C)(C)c1ccc(OCC(=O)NCc2ccc(NS(C)(=O)=O)c(F)c2)cc1` [Example 2, 2-(4-tert-Butylphenoxy)-N-(3-fluoro-4-methanesulfonylaminobenzyl)acetamide], the IC50 (usually the concentration that gives 50% inhibition) at vanilloid receptor worked out at 8.6 nM. Further, the inhibition in vivo at 0.3 mg/kg in the experiment with Male ICR mice (Dose 0.3 mg/kg intraperitoneally) was 51%.

Regarding `CC(C)(C)c1ccc(OCC(=O)NCc2ccc(NS(C)(=O)=O)c(Cl)c2)cc1` [Example 3, 2-(4-tert-Butylphenoxy)-N-(3-chloro-4-methanesulfonylaminobenzyl)-acetamide], the IC50 at vanilloid receptor worked out at 180 nM. In addition, in the experiment on Male ICR mice, the inhibition in vivo at 1 mg/kg was 39%.

Regarding `C=Cc1cc(CNC(=O)COc2ccc(C(C)(C)C)cc2)cc(F)c1NS(C)(=O)=O` [Example 5, 2-(4-tert-Butylphenoxy)-N-(3-fluoro-4-methanesulfonylamino-5-vinylbenzyl)acetamide], the 50% inhibitory concentration (IC50) at vanilloid receptor was 34 nM. For the same compound, the inhibition in vivo at 1 mg/kg in the experiment with Male ICR mice worked out at 59%.

`C#Cc1cc(CNC(=O)COc2ccc(C(C)(C)C)cc2)cc(F)c1NS(C)(=O)=O` [Example 6, 2-(4-tert-Butylphenoxy)-N-(3-ethynyl-5-fluoro-4-methanesulfonylaminobenzyl)acetamide]: the IC50 at vanilloid receptor came to 19 nM. For the same compound, in the experiment on Male ICR mice (Dose 0.1 mg/kg intraperitoneally), the inhibition in vivo at 0.1 mg/kg was 41%.

`C[C@@H](NC(=O)COc1ccc(C(C)(C)C)cc1)c1ccc(NS(C)(=O)=O)c(F)c1` [Example 12, (R)-2-(4-tert-Butylphenoxy)-N-[1-(3-fluoro-4-methanesuffonylaminophenyl)ethyl]acetamide]: at vanilloid receptor, the IC50 was determined as 71 nM. Also, the inhibition in vivo at 1 mg/kg in the experiment with Male ICR mice came to 27%.

Regarding `CC(C)(C)c1ccc(OCC(=NC#N)NCc2ccc(NS(C)(=O)=O)c(F)c2)cc1` [Example 18, 2-(4-tert-Butylphenoxy)-N-(3-fluoro-4-methanesulfonylaminobenzyl)-N'-cyanoacetamidine], the IC50 at vanilloid receptor came out at 120 nM. Besides, the inhibition in vivo at 1 mg/kg in the experiment on Male ICR mice came out at 33%.

As for `CS(=O)(=O)Nc1ccc(CNC(=O)COc2ccc(C(F)(F)F)cc2)cc1F` [Example 24, N-(3-Fluoro-4-methanesulfonylamino-benzyl)-2-(4-trifluoromethylphenoxy)-acetamide], the IC50 at vanilloid receptor came out at 1300 nM. Besides, the inhibition in vivo at 10 mg/kg with Male ICR mice (Dose 10 mg/kg intraperitoneally) amounted to 28%.

Take `CS(=O)(=O)Nc1ccc(CNC(=O)COc2cccc(Cl)c2)cc1F` [Example 42, N-(3-Fluoro-4-methanesulfonylaminobenzyl)-2-(3-chlorophenoxy)acetamide]: the IC50 on vanilloid receptor was above 10000 nM.

As for `CS(=O)(=O)Nc1ccc(CNC(=O)COc2ccc(C(F)(F)F)cc2N2CCOCC2)cc1F` [Example 43, N-(3-Fluoro-4-methanesulfonylamino-benzyl)-2-(2-morpholin-4-yl-4-trifluoromethyl-phenoxy)-acetamide], the IC50 at vanilloid receptor was above 10000 nM.

In the case of `CC(=O)c1cc(C(F)(F)F)ccc1OCC(=O)NCc1ccc(NS(C)(=O)=O)c(F)c1` [Example 44, 2-(2-Acetyl-4-trifluoromethyl-phenoxy)-N-(3-fluoro-4-methanesulfonylamino-benzyl)-acetamide], at vanilloid receptor, the half-maximal inhibitory concentration (IC50) was above 10000 nM.

As to `CS(=O)(=O)Nc1ccc(CNC(=O)COc2ccc(Br)cc2)cc1F` [Example 45, 2-(4-Bromo-phenoxy)-N-(3-fluoro-4-methanesulfonylamino-benzyl)-acetamide], at vanilloid receptor, the concentration for half-maximal inhibition (IC50) is 3700 nM.

`CS(=O)(=O)Nc1ccc(CNC(=O)COc2cccc(Br)c2)cc1F` [Example 46, 2-(3-Bromo-phenoxy)-N-(3-fluoro-4-methanesulfonylamino-benzyl)-acetamide]: the IC50 on vanilloid receptor worked out at 1700 nM.

`CC(C)(C)c1ccc(OCC(=O)NCc2cc(F)c(NS(C)(=O)=O)c(C#N)c2)cc1` [Example 47, 2-[4-(tert-butyl)phenoxy]-N-(3-cyano-5-fluoro-4-methanesulfonyl Amino-benzyl)acetamide]: the IC50 at vanilloid receptor is 150 nM.

Regarding `CC(C)(C)c1ccc(OC(F)C(=O)NCc2ccc(NS(C)(=O)=O)c(F)c2)cc1` (centres unmarked) [Example 48, 2-(4-tert-Butylphenoxy)-2-fluoro-N-(3-fluoro-4-methanesulfonylaminobenzyl)acetamide], the IC50 on vanilloid receptor is 180 nM.

For the compound `CS(=O)(=O)Nc1ccc(CNC(=O)COc2ccccc2C(F)(F)F)cc1F` [Example 51, 2-(2-trifluoromethyl-phenoxy)-N-(3-fluoro-4-methanesulfonylaminobenzyl)-acetamide], the 50% inhibitory concentration (IC50) at vanilloid receptor is above 10000 nM.

As for `CC(C)c1ccc(OCC(=O)NCc2ccc(NS(C)(=O)=O)c(F)c2)cc1` [Example 52, N-(3-Fluoro-4-methanesulfonylaminobenzyl)-2-(4-isopropylphenoxy)acetamide], the IC50 on vanilloid receptor turned out to be 69 nM. In the experiment with Male ICR mice, the inhibition in vivo at 1 mg/kg worked out at 49%.

Consider `CS(=O)(=O)Nc1ccc(CNC(=O)COc2ccc(F)c(F)c2)cc1F` [Example 54, N-(3-Fluoro-4-methanesulfonylaminobenzyl)-2-(3,4-difluorophenoxy)acetamide], for which the half-maximal inhibitory concentration (IC50) on vanilloid receptor is above 10000 nM.

`CC(C)(C)c1ccc(OCC(=O)NCc2ccc(NS(C)(=O)=O)c(F)c2)c(C(C)(C)C)c1` [Example 55, N-(3-Fluoro-4-methanesulfonylaminobenzyl)-2-(2,4-di-tert-butylphenoxy)acetamide]: on vanilloid receptor, the IC50 was 5600 nM.

On to `CS(=O)(=O)Nc1ccc(CNC(=O)COCc2ccc(C(F)(F)F)cc2C(F)(F)F)cc1F` [Example 56, N-(3-Fluoro-4-methanesulfonylaminobenzyl)-2-(2,4-bis(trifluoromethyl)benzyloxy)acetamide], for which the half-inhibitory concentration (IC50) on vanilloid receptor came to 5100 nM.

`CCC(C)(C)c1ccc(OCC(=O)NCc2ccc(NS(C)(=O)=O)c(F)c2)cc1` [Example 57, N-(3-Fluoro-4-methanesulfonylaminobenzyl)-2-(4-(1,1-dimethylpropyl)phenoxy)acetamide]: the concentration for half-maximal inhibition (IC50) on vanilloid receptor came out at 130 nM.

For `CC(C)(C)C(=O)OCc1cc(C(F)(F)F)ccc1OCC(=O)NCc1ccc(NS(C)(=O)=O)c(F)c1` [Example 58, 2,2-Dimethyl-propionic acid 2-[(3-fluoro-4-methanesulfonylaminobenzylcarbamoyl)-methoxy]-5-trifluoromethyl-benzyl ester], the IC50 at vanilloid receptor is 3000 nM.

In the case of `CS(=O)(=O)Nc1ccc(CNC(=O)COc2ccc(Cl)c(F)c2)cc1F` [Example 59, N-(3-Fluoro-4-methanesulfonylaminobenzyl)-2-(4-chloro-3-fluorophenoxy)acetamide], the 50% inhibitory concentration (IC50) on vanilloid receptor is above 10000 nM.

Turning to `CS(=O)(=O)Nc1ccc(CNC(=O)COc2ccc(-c3ccccc3Cl)cc2)cc1F` [Example 60, 2-(2'-Chloro-biphenyl-4-yloxy)-N-(3-fluoro-4-methanesulfonylaminobenzyl)-acetamide], the IC50 on vanilloid receptor was above 10000 nM.

As to `CS(=O)(=O)Nc1ccc(CNC(=O)COc2cccc(-c3ccccc3Cl)c2)cc1F` [Example 61, 2-(2'-Chloro-biphenyl-3-yloxy)-N-(3-fluoro-4-methanesulfonylaminobenzyl)-acetamide], the concentration for half-maximal inhibition (IC50) on vanilloid receptor was found to be 4500 nM.

For `CS(=O)(=O)Nc1ccc(CNC(=O)COc2ccc3c(c2)CCC3)cc1F` [Example 62, N-(3-Fluoro-4-methanesulfonylaminobenzyl)-2-(indan-5-yloxy)acetamide], the “Antagonist Calcium Uptake Test (% @ 10 µM)” value at vanilloid receptor amounted to 82% @ 10 µM.

On to `CS(=O)(=O)Nc1ccc(CNC(=O)COc2ccccc2C2CCCCC2)cc1F` [Example 63, N-(3-Fluoro-4-methanesulfonylaminobenzyl)-2-(2-cyclohexylphenoxy)acetamide], for which the “Antagonist Calcium Uptake Test (% @ 10 µM)” value at vanilloid receptor is on record as 52% @ 10 µM.

With `CS(=O)(=O)Nc1ccc(CNC(=O)COc2ccc(C3CCCCC3)cc2)cc1F` [Example 64, N-(3-fluoro-4-methanesulfonylamino-benzyl)-2-(4-Cyclohexylphenoxy)-acetamide], at vanilloid receptor, the IC50 was above 10000 nM.
